# How the values were obtained:
# Format in all cases: in vivo
# Matricaria inodora [1] = assay: Post-emergence herbicidal test, MATIN; set-up: key to herbicidal effect (0-9 scale) MATIN / herbicidal rating MATIN: A rating 0 indicates growth as untreated control; a rating 9 indicates death; conditions: for herbicidal rating MATIN: POST, 0-9 scale, 21 days after spraying
# Summary of the method: (§1)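 Herbicidal effect is recorded on a linear 0-9 scale, where 0 means growth like untreated control and 9 means death, with one unit approximating 10% more effect.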
# Alopecurus myosuroides = assay: Pre-emergence herbicidal test, ALOMY; set-up: key to herbicidal effect (0-9 scale) ALOMY / herbicidal rating ALOMY: A rating 0 indicates growth as untreated control; a rating 9 indicates death; conditions: PRE, 0-9 scale, 21 days after spraying
# Echinochloa crus-galli [2] = assay: Post-emergence herbicidal test, ECHCG; set-up: key: A rating 0 indicates growth as untreated control; a rating 9 indicates death; conditions: 0-9 scale, 21 days after spraying
# Summary of the method: as §1
# Zea mays [3] = assay: Pre-emergence herbicidal test, ZEAMX; set-up: key to herbicidal effect (0-9 scale) ZEAMX / herbicidal rating ZEAMX: A rating 0 indicates growth as untreated control; a rating 9 indicates death; conditions: for herbicidal rating ZEAMX: PRE, 0-9 scale, 21 days after spraying
# Glycine max = assay: Post-emergence herbicidal test, GLXMA; set-up: key: A rating 0 indicates growth as untreated control; a rating 9 indicates death; conditions: 0-9 scale, 21 days after spraying
# Method: (§2) To evaluate their herbicidal activity, compounds according to the invention are tested using a representative range of plants:
# (§3) […] After spraying, the plants are placed on greenhouse benches and are cared for in the usual manner, commensurate with conventional greenhouse practices.
# (§4) The herbicidal effects of the test compounds are assessed visually twenty-one days after spraying the foliage and the soil and are recorded on a 0-9 scale. A rating 0 indicates growth as untreated control, a rating 9 indicates death. An increase of 1 unit on the linear scale approximates to a 10% increase in the level of effect.
# Ipomoea hederacea [4] = assay: Pre-emergence herbicidal test, IPOHE; set-up: key: A rating 0 indicates growth as untreated control; a rating 9 indicates death; conditions: 0-9 scale, 21 days after spraying
# Abutilon theophrasti [5] = assay: Post-emergence herbicidal test, ABUTH; set-up: key to herbicidal effect (0-9 scale) ABUTH / herbicidal rating ABUTH: A rating 0 indicates growth as untreated control; a rating 9 indicates death; conditions: for herbicidal rating ABUTH: POST, 0-9 scale, 21 days after spraying
# Summary of the method: as §1
# Galium aparine = assay: Pre-emergence herbicidal test, GALAP; set-up: key to herbicidal effect (0-9 scale) GALAP / herbicidal rating GALAP: A rating 0 indicates growth as untreated control; a rating 9 indicates death; conditions: for herbicidal rating GALAP: PRE, 0-9 scale, 21 days after spraying
# Zea mays [6] = assay: Post-emergence herbicidal test, ZEAMX; set-up: key: A rating 0 indicates growth as untreated control; a rating 9 indicates death; conditions: 0-9 scale, 21 days after spraying
# Summary of the method: as §1
# Stellaria media = assay: Post-emergence herbicidal test, STEME; set-up: key to herbicidal effect (0-9 scale) STEME / herbicidal rating STEME: A rating 0 indicates growth as untreated control; a rating 9 indicates death; conditions: for herbicidal rating STEME: POST, 0-9 scale, 21 days after spraying
# Summary of the method: as §1
# [7] = test system: representative range of plants; assay: Pre-emergence herbicidal test, summary over the plants tested; conditions: 100 g/ha
# Method: as §2
# The pre-emergence tests involve spraying a liquid formulation of the compound onto the soil in which the seeds of the plant species mentioned above has recently been sown.
# The soil used in the tests is a prepared horticultural loam. The formulations used in the tests are prepared from solutions of the test compounds in acetone containing 0.4% by weight of an alkylphenol/ethylene oxide condensate available under the trade mark TRITON X-155. […] In these tests untreated sown soil are used as controls.
# as §4
# Setaria viridis [8] = assay: Post-emergence herbicidal test, SETVI; set-up: key to herbicidal effect (0-9 scale) SETVI / herbicidal rating SETVI: A rating 0 indicates growth as untreated control; a rating 9 indicates death; conditions: POST, 0-9 scale, 21 days after spraying
# Summary of the method: as §1
# Matricaria inodora [9] = assay: Pre-emergence herbicidal test, MATIN; set-up: key to herbicidal effect (0-9 scale) MATIN / herbicidal rating MATIN: A rating 0 indicates growth as untreated control; a rating 9 indicates death; conditions: for herbicidal rating MATIN: PRE, 0-9 scale, 21 days after spraying
# Setaria viridis [10] = assay: Pre-emergence herbicidal test, SETVI; set-up: key to herbicidal effect (0-9 scale) SETVI / herbicidal rating SETVI: A rating 0 indicates growth as untreated control; a rating 9 indicates death; conditions: for herbicidal rating SETVI: PRE, 0-9 scale, 21 days after spraying
# Ipomoea hederacea [11] = assay: Post-emergence herbicidal test, IPOHE; set-up: key to herbicidal effect (0-9 scale) IPOHE / herbicidal rating IPOHE: A rating 0 indicates growth as untreated control; a rating 9 indicates death; conditions: for herbicidal rating IPOHE: POST, 0-9 scale, 21 days after spraying
# Summary of the method: as §1
# Echinochloa crus-galli [12] = assay: Pre-emergence herbicidal test, ECHCG; set-up: key: A rating 0 indicates growth as untreated control; a rating 9 indicates death; conditions: 0-9 scale, 21 days after spraying
# Abutilon theophrasti [13] = assay: Pre-emergence herbicidal test, ABUTH; set-up: key to herbicidal effect (0-9 scale) ABUTH / herbicidal rating ABUTH: A rating 0 indicates growth as untreated control; a rating 9 indicates death; conditions: for herbicidal rating ABUTH: PRE, 0-9 scale, 21 days after spraying
# [14] = test system: representative range of plants; assay: Post-emergence herbicidal test, summary over the plants tested; conditions: 100 g/ha
# Method: as §2, §3, §4
smiles,measurement,setting,value
"Cn1c(C(F)(F)F)cc(=O)n(-n2ccc3c(Cl)cccc32)c1=O [Example 169, 3-(4-Chloro-indol-1-yl)-1-methyl-6-trifluoromethylpyrimidine-2,4-dione]",herbicidal rating MATIN,Matricaria inodora [1]; 25 g/ha,8
same,herbicidal rating MATIN,Matricaria inodora [1]; 100 g/ha,9
same,herbicidal rating MATIN,Matricaria inodora [1]; 400 g/ha,9
same,control of Matricaria,"Matricaria inodora [1]; post-emergence, 12.5 g/ha",excellent control
same,herbicidal rating ALOMY,Alopecurus myosuroides; 12.5 g/ha,2
same,herbicidal rating ALOMY,Alopecurus myosuroides; 25 g/ha,5
same,herbicidal rating ALOMY,Alopecurus myosuroides; 100 g/ha,7
same,herbicidal rating ALOMY,Alopecurus myosuroides; 400 g/ha,9
same,herbicidal rating ECHCG,Echinochloa crus-galli [2]; 25 g/ha,5
same,herbicidal rating ECHCG,Echinochloa crus-galli [2]; 100 g/ha,9
same,herbicidal rating ECHCG,Echinochloa crus-galli [2]; 400 g/ha,9
same,herbicidal rating ZEAMX,Zea mays [3]; 12.5 g/ha,0
same,herbicidal rating ZEAMX,Zea mays [3]; 25 g/ha,1
same,herbicidal rating ZEAMX,Zea mays [3]; 100 g/ha,3
same,herbicidal rating ZEAMX,Zea mays [3]; 400 g/ha,7
same,selectivity in maize,"Zea mays [3]; pre-emergence, 25 g/ha",Surprisingly good selectivity
same,herbicidal rating GLXMA,Glycine max; 25 g/ha,5
same,herbicidal rating GLXMA,Glycine max; 100 g/ha,7
same,herbicidal rating GLXMA,Glycine max; 400 g/ha,9
same,herbicidal rating IPOHE,Ipomoea hederacea [4]; 12.5 g/ha,2
same,herbicidal rating IPOHE,Ipomoea hederacea [4]; 25 g/ha,4
same,herbicidal rating IPOHE,Ipomoea hederacea [4]; 100 g/ha,8
same,herbicidal rating IPOHE,Ipomoea hederacea [4]; 400 g/ha,9
same,herbicidal rating ABUTH,Abutilon theophrasti [5]; 25 g/ha,9
same,herbicidal rating ABUTH,Abutilon theophrasti [5]; 100 g/ha,9
same,herbicidal rating ABUTH,Abutilon theophrasti [5]; 400 g/ha,9
same,control of Abutilon,"Abutilon theophrasti [5]; post-emergence, 12.5 g/ha",excellent control
same,herbicidal rating GALAP,Galium aparine; 12.5 g/ha,7
same,herbicidal rating GALAP,Galium aparine; 25 g/ha,8
same,herbicidal rating GALAP,Galium aparine; 100 g/ha,9
same,herbicidal rating GALAP,Galium aparine; 400 g/ha,9
same,control of Galium,"Galium aparine; pre-emergence, 25 g/ha",good control
same,herbicidal rating ZEAMX,Zea mays [6]; 25 g/ha,0
same,herbicidal rating ZEAMX,Zea mays [6]; 100 g/ha,3
same,herbicidal rating ZEAMX,Zea mays [6]; 400 g/ha,5
same,herbicidal rating STEME,Stellaria media; 25 g/ha,8
same,herbicidal rating STEME,Stellaria media; 100 g/ha,9
same,herbicidal rating STEME,Stellaria media; 400 g/ha,9
same,control of Stellaria,"Stellaria media; post-emergence, 12.5 g/ha",excellent control
same,control of the weeds,[7],all of the weeds except Alopecurus were well controlled
same,herbicidal rating SETVI,Setaria viridis [8]; 25 g/ha,6
same,herbicidal rating SETVI,Setaria viridis [8]; 100 g/ha,9
same,herbicidal rating SETVI,Setaria viridis [8]; 400 g/ha,9
same,herbicidal rating MATIN,Matricaria inodora [9]; 12.5 g/ha,8
same,herbicidal rating MATIN,Matricaria inodora [9]; 25 g/ha,8
same,herbicidal rating MATIN,Matricaria inodora [9]; 100 g/ha,9
same,herbicidal rating MATIN,Matricaria inodora [9]; 400 g/ha,9
same,control of Matricaria,"Matricaria inodora [9]; pre-emergence, 25 g/ha",good control
same,herbicidal rating SETVI,Setaria viridis [10]; 12.5 g/ha,8
same,herbicidal rating SETVI,Setaria viridis [10]; 25 g/ha,9
same,herbicidal rating SETVI,Setaria viridis [10]; 100 g/ha,9
same,herbicidal rating SETVI,Setaria viridis [10]; 400 g/ha,9
same,control of Setaria,"Setaria viridis [10]; pre-emergence, 25 g/ha",good control
same,herbicidal rating IPOHE,Ipomoea hederacea [11]; 25 g/ha,9
same,herbicidal rating IPOHE,Ipomoea hederacea [11]; 100 g/ha,9
same,herbicidal rating IPOHE,Ipomoea hederacea [11]; 400 g/ha,9
same,control of Ipomoea,"Ipomoea hederacea [11]; post-emergence, 12.5 g/ha",excellent control
same,herbicidal rating ECHCG,Echinochloa crus-galli [12]; 12.5 g/ha,4
same,herbicidal rating ECHCG,Echinochloa crus-galli [12]; 25 g/ha,7
same,herbicidal rating ECHCG,Echinochloa crus-galli [12]; 100 g/ha,9
same,herbicidal rating ECHCG,Echinochloa crus-galli [12]; 400 g/ha,9
same,herbicidal rating ABUTH,Abutilon theophrasti [13]; 12.5 g/ha,5
same,herbicidal rating ABUTH,Abutilon theophrasti [13]; 25 g/ha,9
same,herbicidal rating ABUTH,Abutilon theophrasti [13]; 100 g/ha,9
same,herbicidal rating ABUTH,Abutilon theophrasti [13]; 400 g/ha,9
same,control of Abutilon,"Abutilon theophrasti [13]; pre-emergence, 25 g/ha",good control
same,control of the weeds,[14],good cross spectrum control on both broadleaf weeds and grasses
